ChEMBL document CHEMBL2390867, “Design, synthesis and evaluation of novel tacrine-coumarin hybrids as multifunctional cholinesterase inhibitors against Alzheimer's disease” (Eur J Med Chem, 2013)
Activity calls are given as the source filed them. No cut-off for these calls is given here.

What was measured:
[1] = molecular target: Cholinesterase (Equus caballus, UniProt P81908)
Description: Inhibition of equine serum BChE using S-butyrylthiocholine iodide as substrate preincubated for 6 mins prior to substrate addition measured at 60 to 180 seconds by Ellman's method

[2] = molecular target: T1, Acetylcholinesterase (Electrophorus electricus, UniProt O42275)
Description: Inhibition of electric eel AChE using acetylthiocholine iodide as substrate preincubated for 6 mins prior to substrate addition measured at 60 to 180 seconds by Ellman's method

[3] = molecular target: Amyloid-beta precursor protein (Homo sapiens) (UniProt P05067); details: at 20 µM
Amyloid-beta precursor protein (Homo sapiens), sequence (P05067 whole entry): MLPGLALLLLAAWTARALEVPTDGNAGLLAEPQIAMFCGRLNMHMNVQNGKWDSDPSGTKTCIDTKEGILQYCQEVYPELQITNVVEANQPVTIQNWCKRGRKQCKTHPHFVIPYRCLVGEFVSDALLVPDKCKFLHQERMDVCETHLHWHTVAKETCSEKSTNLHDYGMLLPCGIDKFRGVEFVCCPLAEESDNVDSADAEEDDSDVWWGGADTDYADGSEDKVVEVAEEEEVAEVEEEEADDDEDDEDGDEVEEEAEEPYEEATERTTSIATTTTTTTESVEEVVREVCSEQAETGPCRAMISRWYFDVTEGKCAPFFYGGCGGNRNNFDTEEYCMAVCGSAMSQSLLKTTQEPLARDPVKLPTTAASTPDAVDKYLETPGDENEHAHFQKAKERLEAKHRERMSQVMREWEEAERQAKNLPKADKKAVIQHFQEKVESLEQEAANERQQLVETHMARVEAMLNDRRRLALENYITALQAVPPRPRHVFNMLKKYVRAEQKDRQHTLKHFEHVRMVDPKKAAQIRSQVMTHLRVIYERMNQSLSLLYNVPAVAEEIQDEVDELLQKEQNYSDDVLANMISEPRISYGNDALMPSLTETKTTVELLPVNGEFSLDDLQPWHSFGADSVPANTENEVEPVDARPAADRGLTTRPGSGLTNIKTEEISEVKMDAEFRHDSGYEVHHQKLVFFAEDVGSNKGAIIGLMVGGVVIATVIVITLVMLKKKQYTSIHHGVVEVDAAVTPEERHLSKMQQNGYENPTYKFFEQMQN

[4] = Neurotoxicity in human SH-SY5Y cells at 50 uM after 24 hrs by MTT assay relative to control; format: toxicity, cell-based
[5] = Neurotoxicity in human SH-SY5Y cells at 25 uM after 24 hrs by MTT assay relative to control; format: toxicity, cell-based
[6] = Neurotoxicity in human SH-SY5Y cells at 10 uM after 24 hrs by MTT assay relative to control; format: toxicity, cell-based
[7] = Neurotoxicity in human SH-SY5Y cells at 5 uM after 24 hrs by MTT assay relative to control; format: toxicity, cell-based; details: read-out: Activity
[8] = Neurotoxicity in human SH-SY5Y cells at 1 uM after 24 hrs by MTT assay relative to control; format: toxicity, cell-based
[9] = Metal chelating activity assessed as compound-Cu2+ complex formation at 25 uM by UV-vis spectrophotometric analysis; format: functional
[10] = molecular target: T1, Acetylcholinesterase; assay: Competitive inhibition of electric eel AChE using acetylthiocholine as substrate by Lineweaver-Burk plot analysis
[11] = Metal chelating activity assessed as compound-Fe2+ complex formation at 25 uM by UV-vis spectrophotometric analysis; format: functional

T1 sequence (O42275 whole entry): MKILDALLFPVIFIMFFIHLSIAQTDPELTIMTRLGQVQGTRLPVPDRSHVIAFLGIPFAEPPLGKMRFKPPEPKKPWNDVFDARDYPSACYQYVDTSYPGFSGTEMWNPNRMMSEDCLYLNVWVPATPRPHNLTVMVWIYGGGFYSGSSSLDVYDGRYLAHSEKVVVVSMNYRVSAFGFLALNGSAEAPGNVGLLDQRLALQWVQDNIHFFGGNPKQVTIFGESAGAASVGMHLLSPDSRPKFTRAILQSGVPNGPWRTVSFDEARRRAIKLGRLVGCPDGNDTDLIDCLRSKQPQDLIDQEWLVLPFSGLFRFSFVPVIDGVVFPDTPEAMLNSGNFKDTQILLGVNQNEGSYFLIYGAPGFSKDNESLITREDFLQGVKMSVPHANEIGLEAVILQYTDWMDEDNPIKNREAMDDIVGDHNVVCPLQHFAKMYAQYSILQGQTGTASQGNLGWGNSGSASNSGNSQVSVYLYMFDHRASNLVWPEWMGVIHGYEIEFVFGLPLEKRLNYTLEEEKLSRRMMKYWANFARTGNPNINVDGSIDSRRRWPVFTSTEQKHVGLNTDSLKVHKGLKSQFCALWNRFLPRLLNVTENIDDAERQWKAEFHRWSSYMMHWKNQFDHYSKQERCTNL
Cholinesterase, sequence (P81908 whole entry): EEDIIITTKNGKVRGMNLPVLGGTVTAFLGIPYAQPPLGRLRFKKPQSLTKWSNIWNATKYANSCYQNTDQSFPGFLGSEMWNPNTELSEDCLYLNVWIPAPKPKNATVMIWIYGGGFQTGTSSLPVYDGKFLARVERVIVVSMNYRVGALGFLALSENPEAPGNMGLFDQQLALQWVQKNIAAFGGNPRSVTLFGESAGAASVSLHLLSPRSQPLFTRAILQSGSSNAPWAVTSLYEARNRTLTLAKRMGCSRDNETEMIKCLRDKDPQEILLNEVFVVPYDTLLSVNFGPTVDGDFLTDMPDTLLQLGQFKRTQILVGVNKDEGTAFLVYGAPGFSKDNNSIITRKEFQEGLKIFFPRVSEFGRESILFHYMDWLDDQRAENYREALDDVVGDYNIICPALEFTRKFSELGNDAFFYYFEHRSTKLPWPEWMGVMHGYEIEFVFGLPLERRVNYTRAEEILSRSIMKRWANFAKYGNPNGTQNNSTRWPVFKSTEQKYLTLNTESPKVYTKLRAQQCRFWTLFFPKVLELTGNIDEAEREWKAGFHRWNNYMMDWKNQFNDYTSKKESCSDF

Structure (SMILES)	IC50 [1]	IC50 [2]	inhibition [3]	also measured
Cc1cc(=O)oc2cc(OCCCCCCN3CCN(CC(=O)Nc4c5c(nc6ccccc46)CCCC5)CC3)ccc12	0.099 µM	0.398 µM	57.6%	–
O=c1cc(-c2ccccc2)c2ccc(O)cc2o1	> 500 µM	258 µM	27.1%	–
O=C(CN1CCN(CCCCOc2ccc3c(-c4ccccc4)cc(=O)oc3c2)CC1)Nc1c2c(nc3ccccc13)CCCC2	1.82 µM	1.11 µM	28.6%	–
Cc1cc(=O)oc2cc(OCCCCCN3CCN(CC(=O)Nc4c5c(nc6ccccc46)CCCC5)CC3)ccc12	0.164 µM	0.333 µM	59.8%	–
O=C(CN1CCN(CCCCOc2ccc3ccc(=O)oc3c2)CC1)Nc1c2c(nc3ccccc13)CCCC2	0.309 µM	0.169 µM	57%	–
O=C(CN1CCNCC1)Nc1c2c(nc3ccccc13)CCCC2	22 µM	145 µM	30.3%	–
O=C(CN1CCN(CCCCCCOc2ccc3ccc(=O)oc3c2)CC1)Nc1c2c(nc3ccccc13)CCCC2	0.21 µM	0.646 µM	57.1%	–
COc1cc(=O)oc2cc(OCCN3CCN(CC(=O)Nc4c5c(nc6ccccc46)CCCC5)CC3)ccc12	5.14 µM	0.15 µM	21.6%	–
COc1cc(=O)oc2cc(OCCCCCCN3CCN(CC(=O)Nc4c5c(nc6ccccc46)CCCC5)CC3)ccc12	1.78 µM	0.993 µM	31.9%	–
COc1cc(=O)oc2cc(OCCCCN3CCN(CC(=O)Nc4c5c(nc6ccccc46)CCCC5)CC3)ccc12	3.63 µM	0.237 µM	22.1%	–
COc1cc(=O)oc2cc(OCCCN3CCN(CC(=O)Nc4c5c(nc6ccccc46)CCCC5)CC3)ccc12	1.83 µM	0.166 µM	34.9%	–
COc1cc(=O)oc2cc(OCCCCCN3CCN(CC(=O)Nc4c5c(nc6ccccc46)CCCC5)CC3)ccc12	0.73 µM	0.357 µM	30%	–
COc1cc(=O)oc2cc(O)ccc12	> 500 µM	208 µM	22.4%	–
Cc1cc(=O)oc2cc(O)ccc12 [HYMECROMONE]	> 500 µM	167 µM	21.5%	–
Cc1cc(=O)oc2cc(OCCN3CCN(CC(=O)Nc4c5c(nc6ccccc46)CCCC5)CC3)ccc12	0.234 µM	0.092 µM	–	Activity [4]: 91.5%; Activity [5]: 93.6%; Activity [6]: 104.3%; viability at 24 h, 5 µM [7]: 94.7%; Activity [8]: 96.6%; Activity [9]: Active; Ki [10]: 0.081 µM; Activity [11]: Active
O=C(CN1CCN(CCCCCOc2ccc3ccc(=O)oc3c2)CC1)Nc1c2c(nc3ccccc13)CCCC2	0.215 µM	0.31 µM	52.7%	–
O=c1ccc2ccc(O)cc2o1	–	–	30.5%	–
O=C(CN1CCN(CCOc2ccc3c(-c4ccccc4)cc(=O)oc3c2)CC1)Nc1c2c(nc3ccccc13)CCCC2	1.51 µM	0.373 µM	27.2%	–
COc1cc(/C=C/C(=O)CC(=O)/C=C/c2ccc(O)c(OC)c2)ccc1O	–	–	42.4%	–
O=C(CN1CCN(CCCOc2ccc3c(-c4ccccc4)cc(=O)oc3c2)CC1)Nc1c2c(nc3ccccc13)CCCC2	3.16 µM	0.887 µM	28.2%	–
Cc1cc(=O)oc2cc(OCCCCN3CCN(CC(=O)Nc4c5c(nc6ccccc46)CCCC5)CC3)ccc12	0.147 µM	0.187 µM	52.7%	–
O=C(CN1CCN(CCOc2ccc3ccc(=O)oc3c2)CC1)Nc1c2c(nc3ccccc13)CCCC2	0.493 µM	0.15 µM	59%	–
O=C(CN1CCN(CCCCCCOc2ccc3c(-c4ccccc4)cc(=O)oc3c2)CC1)Nc1c2c(nc3ccccc13)CCCC2	4.51 µM	2.36 µM	27.5%	–
O=C(CN1CCN(CCCOc2ccc3ccc(=O)oc3c2)CC1)Nc1c2c(nc3ccccc13)CCCC2	0.44 µM	0.133 µM	55.1%	–
O=C(CN1CCN(CCCCCOc2ccc3c(-c4ccccc4)cc(=O)oc3c2)CC1)Nc1c2c(nc3ccccc13)CCCC2	1.27 µM	1.58 µM	29.5%	–
Cc1cc(=O)oc2cc(OCCCN3CCN(CC(=O)Nc4c5c(nc6ccccc46)CCCC5)CC3)ccc12	0.628 µM	0.13 µM	67.5%	–
